Reference: US20250228840A1, “METHODS OF TREATING SJÖGREN-LARSSEN SYNDROME” (Aldeyra Therapeutics, Inc., priority 2022, published 2025)
“Also recorded” adds a separate entry of the source. One block for each compound: values may come before it.

How the values were obtained:
Oral absorption = assay type: in vivo
Excerpt: (§1) Aldehydes are toxic molecules due to their propensity to covalently attach to proteins and other target molecules containing certain reactive chemical groups. Drugs that detoxify reactive aldehydes are under development for various inflammatory conditions characterized by the excessive formation of aldehydes. […] This clinical trial will investigate the safety and biochemical efficacy of systemic administration of Compound 1 in SLS.

[1] = test system: cultured Chinese hamster cells lacking FALDH; test: Fatty aldehyde adducts, cytotoxicity and metabolism in cultured FALDH-deficient cells; assay type: cell-based
Excerpt: as §1
There are no satisfactory animal models of SLS, thereby limiting preclinical testing to in vitro cellular studies. […] The detoxified ADX-102-fatty aldehyde by-products are degraded intracellularly. Thus, treatment of cultured FALDH-deficient cells with ADX-102 bypasses the lost catabolic function of FALDH on aldehydes in SLS and diminishes aldehyde load.

[2] = test system: allergic conjunctivitis and dry eye; settings: ophthalmic preparation, Phase-2; cited from earlier work
SLS subjects = settings: applied topically as a cream; cited from earlier work
[3] = test system: cultured Chinese hamster cells lacking FALDH; settings: cultured FALDH-deficient cells; long-chain (C16-C18) fatty aldehydes; cited from earlier work
[4] = Exemplary PK results after oral administration of I-1 unit dosage form, daily dose 20-1200 mg (Table 2); assay type: in vivo; settings: human subject
Protocol: In some embodiments, a unit dosage form described herein that comprises compound I-1, or a pharmaceutically acceptable salt thereof, upon oral administration to a human subject in a daily dose of 20 mg, 50 mg, 100 mg, 200 mg, 400 mg, 700 mg, or 1200 mg (or about such doses, as the case may be), provides a pharmacokinetic result shown in the table below:
In some embodiments, the human subject is a healthy human subject.
In some embodiments, the pharmacokinetic result described herein is obtained in a healthy human subject.

Structure (SMILES): CC(C)(O)c1nc2ccc(Cl)cc2cc1N [ADX-102, 2-[3-amino-6-chloro-quinolin-2-yl]-propan-2-ol]
oral absorption (Oral absorption): poor absorption qualities
fatty aldehyde cytotoxicity and apoptosis [1]: mitigate aldehyde cytotoxicity; also recorded: reverses fatty aldehyde cytotoxicity and apoptosis
metabolism of fatty aldehyde to fatty alcohol ([1]; C18:0, octadecanal, data not shown): prevent metabolism of fatty aldehydes to fatty alcohols; also recorded: blocks the metabolism of fatty aldehyde (C18:0, octadecanal) to fatty alcohol
effect on synthesis or degradation of fatty alcohol itself ([1]; data not shown): no effect
clinical activity in allergic conjunctivitis and dry eye [2]: beneficial activity
ichthyosis (SLS subjects): improve ichthyosis
formation of fatty aldehyde covalent adducts with PE (NAPE) / cellular lipids [3]: block the formation of long-chain (C16-C18) fatty aldehyde adducts with cellular lipids; also recorded: prevents fatty aldehydes from forming covalent adducts with PE (NAPE)

oral absorption (Oral absorption): well-absorbed orally
AUCinf ([4]; daily dose 20 mg (or about)): 50.0 ng·h/mL
Cmax ([4]; daily dose 20 mg (or about)): 26.4 ng/mL
AUCinf ([4]; daily dose 50 mg (or about)): 156 ng·h/mL
Cmax ([4]; daily dose 50 mg (or about)): 56.7 ng/mL
AUCinf ([4]; daily dose 100 mg (or about)): 433 ng·h/mL
Cmax ([4]; daily dose 100 mg (or about)): 140 ng/mL
t1/2 ([4]; daily dose 100 mg (or about)): ~3.52 h
AUCinf ([4]; daily dose 200 mg (or about)): 1140 ng·h/mL
Cmax ([4]; daily dose 200 mg (or about)): 459 ng/mL
t1/2 ([4]; daily dose 200 mg (or about)): ~6.04 h
AUCinf ([4]; daily dose 400 mg (or about)): 2730 ng·h/mL
Cmax ([4]; daily dose 400 mg (or about)): 869 ng/mL
t1/2 ([4]; daily dose 400 mg (or about)): ~6.15 h
AUCinf ([4]; daily dose 700 mg (or about)): 6710 ng·h/mL
Cmax ([4]; daily dose 700 mg (or about)): 2020 ng/mL
t1/2 ([4]; daily dose 700 mg (or about)): ~7.33 h
AUCinf ([4]; daily dose 1200 mg (or about)): 14500 ng·h/mL
Cmax ([4]; daily dose 1200 mg (or about)): 4220 ng/mL
t1/2 ([4]; daily dose 1200 mg (or about)): ~7.69 h
Structure (SMILES): CC(C)(O)c1nc2ccccc2cc1N [Compound I-1]
